ChEMBL document CHEMBL5728406, “Thioether triazolopyridine and triazolopyrimidine inhibitors of myeloperoxidase” (2021)

Key:
[1] = molecular target: T1, Myeloperoxidase (Homo sapiens, UniProt P05164); assay: MPO Chlorination (APF) Assay : MPO chlorination activity was measured in 100 mM KPi (pH 7.4) by utilizing the non-fluorescent reagent Aminophenyl fluorescein (APF, Invitrogen catalog #A36003). APF is cleaved by (—OCl) to yield the fluorescent compound fluorescein. […] Enzyme, inhibitor, and chloride were preincubated for ten minutes at rt.After the ten minute preincubation, 25 μL of an APF mixture containing […], 120 mM NaCl and 10 μM H2O2 was added to the plate using the internal dispensing system of a Hammatsu FDSS 6000. […] IC50 values for inhibitors were calculated by taking the slope of the linear portion of the kinetic measurement (20 seconds to ˜80-120 secs).IC50 values were calculated by determining the slope of the linear portion of the kinetic trace (180-540 secs), and using that calculated slope to determine % inhibition occurring at each concentration of inhibitor using the following equation:Y = A + B - A 1 + ( C / x ) Dwhere A=minimal Y value (activity level of inhibited sample), B=maximal Y value (activity level of uninhibited sample), C=Log IC50, D=Hill Slope, x=concentration of inhibitor.
T1 sequence (P05164 whole entry): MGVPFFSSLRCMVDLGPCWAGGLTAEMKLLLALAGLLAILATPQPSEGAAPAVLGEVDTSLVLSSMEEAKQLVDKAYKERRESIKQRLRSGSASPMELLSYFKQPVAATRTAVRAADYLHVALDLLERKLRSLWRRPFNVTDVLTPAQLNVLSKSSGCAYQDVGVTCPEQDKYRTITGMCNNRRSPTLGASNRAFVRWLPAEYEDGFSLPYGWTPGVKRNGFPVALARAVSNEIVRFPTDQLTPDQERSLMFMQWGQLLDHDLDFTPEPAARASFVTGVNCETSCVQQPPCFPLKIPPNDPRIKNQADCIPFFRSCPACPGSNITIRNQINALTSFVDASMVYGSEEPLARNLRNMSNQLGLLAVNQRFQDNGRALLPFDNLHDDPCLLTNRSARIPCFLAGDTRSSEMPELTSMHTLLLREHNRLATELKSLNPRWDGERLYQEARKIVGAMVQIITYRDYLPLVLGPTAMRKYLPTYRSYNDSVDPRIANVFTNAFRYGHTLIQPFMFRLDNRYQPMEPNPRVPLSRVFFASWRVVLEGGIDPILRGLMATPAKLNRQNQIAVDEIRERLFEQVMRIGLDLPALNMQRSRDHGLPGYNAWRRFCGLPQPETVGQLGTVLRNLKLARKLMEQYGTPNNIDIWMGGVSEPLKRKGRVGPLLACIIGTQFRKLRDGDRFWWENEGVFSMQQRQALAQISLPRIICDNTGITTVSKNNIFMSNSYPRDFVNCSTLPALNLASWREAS

[2] = molecular target: T1, Myeloperoxidase; assay: MPO Peroxidation (Amplex Red) Assay: MPO peroxidation activity was measured in 100 mM KPi (pH 7.4) by utilizing the non-fluorescent reagent Amplex Red (Invitrogen catalog #A12222) which can be oxidized to the highly fluorescent resorufin. Amplex Red is oxidized by the peroxidase action of MPO to resorufin. […] Enzyme and compound were preincubated for ten minutes at rt.After the ten minute preincubation, 25 μL of an Amplex Red mixture containing 200 μM Amplex Red and 10 mM H2O2 was added to the plate.

Structure (SMILES)	IC50 [1]	IC50 [2]
Cn1cc(CSc2cc(N)nc3[nH]nnc23)c(C(F)(F)F)n1	< 60 nM	
N#Cc1ccc(Cl)c(CSc2cc(N)nc3[nH]nnc23)c1	< 60 nM	
N#Cc1c(F)cccc1CSc1cc(N)nc2[nH]nnc12	< 60 nM	
N#Cc1cccc(Br)c1CSc1cc(N)nc2[nH]nnc12	< 60 nM	
Cc1nn(C)c(C)c1CSc1cc(N)nc2[nH]nnc12	80 nM	30 nM
Cn1ncc(CSc2cc(N)nc3[nH]nnc23)c1C(F)(F)F	< 60 nM	
CCc1nn(C)c(Cl)c1CSc1cc(N)nc2[nH]nnc12	< 60 nM	
Cn1nc(C(F)(F)F)c(CSc2cc(N)nc3[nH]nnc23)c1F	< 60 nM	
